Data on 5 compounds can be found in patent publication US11174267B2, “Spiroindolinones and therapeutic uses thereof” (The Regents of the University of California, priority 2015, dated 2021).

For series [1] the following is noted: in the presence of fluconazole; cited from earlier work.
In series [2] the test system is susceptible strain (HLY4123) of C. albicans. The series can be described thus: Dose-response with fluconazole (0.25 μg/mL) against susceptible strain. In kind it is cell-based, Candida albicans. The procedure:
(§1) C. albicans was grown in SC medium overnight and then diluted to an effective OD600 of 0.0625. Serial ten-fold dilutions of the test compounds (0.15-1500 μM) were prepared in DMSO in 1.5 mL Eppendorf tubes. […] The plates were incubated in a rotary shaker/incubator at 30° C. for 16 h. The contents of each well was resuspended with a micropipettor and a 20 μL aliquot was added to a polystyrene cuvette and diluted with 680 μL of deionized water. The suspension was triturated again immediately before measuring the absorbance at 600 nm (OD600) for cell densities. EC50 values were determined by fitting to the Hill equation using the Excel-based tool ED50PLUS v1.0 (Mario H. Vargas) or using Mathematica. Similar procedures were used for Candida glabrata and Cryptococcus neoformans.

Series [3] relates to Resistant Candida albicans (clinical isolate-45). The series is described as follows: EC50 in combination with fluconazole, resistant C. albicans. It is filed as cell-based. Particulars: C. albicans clinical isolate-45; [fluconazole] = 64 μg/mL; read-out: EC50 Resistant Candida albicans.
For series [4], the system named is NIH 3T3 cells. The series is described as follows: Cytotoxicity, LDH assay. Particulars: concentrations up to 1.5 mM. It is filed as cell-based. The procedure: The cytotoxicity of spiroindoline Compounds 1, 8 and 25 were tested against NIH 3T3 cells at concentrations up to 1.5 mM (FIG. 13) using an LDH assay.
For series [5], the system named is Candida glabrata. The series can be described thus: EC50 in combination with fluconazole, Candida glabrata. It is filed as cell-based. The conditions noted are these: [fluconazole] = 128 μg/mL.
Description: (§2) Strains and growth condition. The wild-type Candida albicans strains used were SC5314 and CaSS1. Cdr1 heterozygous were from Merck Sharp & Dohme Corp. Double Barcoded (DBC) library of heterozygous Candida albicans mutants (version 2013A). Cdr1 deficient mutant was obtained by counterselection of the GRACE library strain on 5-Fluoroorotic Acid (5-FOA) containing plate. Clinical isolated resistant C. albicans were from Dr. David Rogers. Cryptococcus neoformans var. grubii H99 (ATCC 208821) and Candida glabrata BG2, a fluconazole-resistant clinical isolate, were used. Yeast strains were cultured at 30° C. in synthetic complete (SC) medium containing 2% glucose.
as §1
(§3) Because fungal drug-efflux ABC transporters are conserved, Cdr1 inhibitors that target the conserved regions of the pumps are expected to inhibit the drug efflux pumps in all fungi including C. albicans. […] Therefore, those spiroindolinones are candidates for combination antifungal therapy with azoles against invasive infections of not only C. albicans, but also other pathogenic fungi.

Series [6] concerns Cryptococcus neoformans. The series is described as follows: EC50 in combination with fluconazole, Cryptococcus neoformans. Particulars: [fluconazole] = 4 μg/mL. In kind it is cell-based.
Description: as §2, §1, §3

Series [7] concerns resistant clinical isolates of C. albicans. The series is described as follows: Screen of resistant clinical isolates, single dose, broth microdilution (growth OD600). It is filed as cell-based, Candida albicans. Particulars: fluconazole 64 μg/mL alone, 16 h in SC at 30° C. The text has this: (Flowers, S. A., et al. Eukaryotic Cell 2012, 11, 1289-1299.) The strains grow at dramatically different rates.

Series [8] has the same test system. Further details: unit not given beside the values. Particulars: cited from earlier work.
In series [9] the test system is C. albicans strain HLY4123 and clinical isolates 26 and 45. The series is described as follows: Checkerboard assay (MIC90, FIC index). In kind it is cell-based, Candida albicans. Particulars: Candida albicans. As to the method:
Checkerboard assays were carried out using four 24-well plates. The results on each plate were normalized by duplication of one row and one column with a row and column on another plate. C. albicans was grown in SC medium overnight and then diluted to an effective OD600 of 0.0625. Serial ten-fold dilutions of the test compounds (150 mM) were prepared in DMSO in 1.5 mL Eppendorf tubes. […] Concentrations of compound in rows 1-11 varied from 300 μM to 0.0003 nM; the last row 12 contained no compound. […] The plates were incubated in a rotary shaker/incubator at 30° C. for 16 h. The contents of each well was resuspended with a micropipettor and a 20 μL aliquot was added to a polystyrene cuvette and diluted with 680 μL of deionized water. The suspension was triturated again immediately before measuring the absorbance at 600 nm. The MIC90 values were determined as the lowest concentrations of the drugs (alone or in combination) that inhibited fungal growth by 90% compared with that of the drug-free wells.
In all of the strains tested, the FIC index was below 0.5, fitting the classical definition of synergy.

The target in series [10] is C. albicans sterol α-demethylase (a.k.a. Erg11 or CYP51) (Candida albicans, UniProt P10613). The series is described as follows: Literature: inhibition of sterol α-demethylase by fluconazole. Particulars: ten times the Ki, >90% inhibition expected. In kind it is biochemical.
Where [11] appears, read: Candida albicans, with fluconazole 0.25 μg/mL, strain HLY4123.
Where [12] appears, read: with fluconazole 0.25 μg/mL, strain HLY4123.

pEC50: −log10 of the molar value. Read-outs that look alike come from different tables or passages of the source.

Sequence of C. albicans sterol α-demethylase (a.k.a. Erg11 or CYP51) (P10613 whole entry): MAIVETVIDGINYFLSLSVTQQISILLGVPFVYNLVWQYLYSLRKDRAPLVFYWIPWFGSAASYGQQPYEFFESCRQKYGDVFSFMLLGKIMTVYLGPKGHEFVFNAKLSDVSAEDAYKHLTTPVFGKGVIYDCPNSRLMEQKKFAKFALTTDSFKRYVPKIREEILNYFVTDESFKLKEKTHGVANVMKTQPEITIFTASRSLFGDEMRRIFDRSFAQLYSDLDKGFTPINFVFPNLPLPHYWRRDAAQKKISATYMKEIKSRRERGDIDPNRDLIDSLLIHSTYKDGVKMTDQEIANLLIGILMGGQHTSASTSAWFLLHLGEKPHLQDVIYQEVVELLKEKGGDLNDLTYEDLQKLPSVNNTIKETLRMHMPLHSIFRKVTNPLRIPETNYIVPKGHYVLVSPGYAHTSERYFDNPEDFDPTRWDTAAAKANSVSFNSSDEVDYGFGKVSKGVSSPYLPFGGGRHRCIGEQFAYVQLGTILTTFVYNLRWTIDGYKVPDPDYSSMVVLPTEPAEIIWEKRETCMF

As usually defined, the MIC is the smallest concentration in the dilution series that meets the test's criterion for growth inhibition. As for `CN[C@H]1CC[C@@H](c2ccc(Cl)c(Cl)c2)c2ccccc21` [sertraline], the minimal inhibitory concentration (MIC) in [1] was at least 0.5 µg/mL.
As usually defined, the pEC50 is the EC50 on a negative log10 scale, so that one unit is a factor of ten. As to `Cc1c(Cl)ccc2c1NC(=O)[C@]21N[C@H](Cc2ccccc2)[C@@H]2C(=O)N(c3ccccc3)C(=O)[C@@H]21` (racemic) [Compound 8], the pEC50 in series [2] (setting [11]) is 9.00; in series [3], 6.31; in series [5], 5.76; in [6], 4.95. In addition, the cytotoxicity entry in series [4] is “weak to negligible cytotoxicity”.
Take `Cc1c(Cl)ccc2c1NC(=O)[C@@]21[C@H]2C(=O)N(c3ccccc3)C(=O)[C@H]2[C@H]2CNCCN21` [Compound 20]: in series [2] (setting [12]), the “activity (in words)” value is given as “low activity”.
What is called MIC90 is the lowest concentration that inhibits either 90% of growth or 90% of the strains tested, depending on the study. On to `OC(Cn1cncn1)(Cn1cncn1)c1ccc(F)cc1F` [fluconazole, reference compound], for which the “Growth (OD600) +Fluc” value in [7] (clinical isolate 15) came out at 5.58; in series [7] (clinical isolate 16), 0.64; in series [7] (clinical isolate 17), 3.96; in series [7] (clinical isolate 21), 6.46; in series [7] (clinical isolate 22) it was 3.27; in [7] (clinical isolate 23) it was 6.77. The “Growth (OD600) +Fluc” value in series [7] (clinical isolate 25) was determined as 2.90; in series [7] (clinical isolate 26) it was 6.44; in series [7] (clinical isolate 30), 9.40; in [7] (clinical isolate 33), 7.38; in series [7] (clinical isolate 36), 5.08; in series [7] (clinical isolate 41) it was 9.47. The entries for the “Growth (OD600) +Fluc” value in series [7] (clinical isolate 45) and in series [7] (clinical isolate 49) were 9.17 and 11.31, respectively. In addition, the MICFlc is given as 16 in [8] (clinical isolate 15); 16 in series [8] (clinical isolate 16); 32 in series [8] (clinical isolate 17); 32 in series [8] (clinical isolate 21); 32 in [8] (clinical isolate 22); 32 in series [8] (clinical isolate 23). The MICFlc is given as 32 in series [8] (clinical isolate 25); 32 in series [8] (clinical isolate 26); 64 in series [8] (clinical isolate 30); 64 in series [8] (clinical isolate 33); 64 in [8] (clinical isolate 36); 128 in series [8] (clinical isolate 41). The MICFlc in [8] (clinical isolate 45) is given as 128. Besides, the MIC90 in series [9] (clinical isolate 26, fluconazole alone, read-out: MICFlc (MIC90)) is 836 µM; in series [9] (clinical isolate 26, with Compound 25, read-out: MICFlc (+cpd) (MIC90)), 105 µM; in series [9] (clinical isolate 45, fluconazole alone, read-out: MICFlc (MIC90)), 836 µM; in series [9] (clinical isolate 45, with Compound 25, read-out: MICFlc (+cpd) (MIC90)), 105 µM; in series [9] (read-out: MIC90 for fluconazole, susceptible strain, Compound 25 present at 300 nM), 0.125 µM; in series [9] (strain HLY4123, fluconazole alone, read-out: MICFlc (MIC90)), 0.5 µM. The MIC90 in series [9] (strain HLY4123, with Compound 25, read-out: MICFlc (+cpd) (MIC90)) came to 0.125 µM. Also, the “theoretical limit for fluconazole potency” value in series [10] is “around 0.3 μM”.
Turning to `Cc1c(Cl)ccc2c1NC(=O)[C@@]21[C@H]2C(=O)N(c3ccccc3)C(=O)[C@H]2[C@H]2CN(C(=O)OC(C)(C)C)CCN21` (racemic) [Compound 9, (±)-tert-Butyl (3R,3a′R,3b'S,9a'S)-6-chloro-7-methyl-1′,2,3′-trioxo-2′-phenyl-2′,3′,3a′,3b′,4′,6′,7′,9a′-octahydrospiro[indoline-3,9′-pyrrolo[3′,4′:3,4]pyrrolo[1,2-a]pyrazine]-5′(1′H)-carboxylate], the pEC50 is 8.25 in series [2] (setting [11]) and 8.10 to 8.22 in series [2] (setting [12]). Besides, the “times more potent than compound 33” value in [2] (ratio of EC50s, diastereomers) is “over 35”.
